Source: patent publication US20250009745A1, “CDK INHIBITOR” (SHANGHAI QILU PHARMACEUTICAL RESEARCH AND DEVELOPMENT …, priority 2021, published 2025)

Columns and labels:
Assay in all cases: CDK enzymology experiment in vitro, capillary mobility shift assay (MSA)
Assay type in all cases: biochemical
CDK2 = target: T1, CDK2 (Homo sapiens, UniProt P24941); conditions: read-out: CDK2 (nM) inhibitory IC50
T1 construct: purchased Carna Company
Outline: (§1)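 Recombinant kinases tested against peptide substrates in 1× kinase buffer, with compound added as a 100-fold DMSO stock. Top concentration 1, 10 or 30 μM, 3-fold dilutions over 10 points, in duplicate. Substrate conversion read by Caliper EZ Reader, normalised to no-enzyme and no-compound controls, and IC50 fitted with a variable-slope log(inhibitor)–response model.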

CDK4 = target: T2, CDK4 (Homo sapiens, UniProt P11802); conditions: read-out: CDK4 (nM) inhibitory IC50
T2 construct: purchased Carna Company
Outline: as §1

CDK6 = target: T3, CDK6 (Homo sapiens, UniProt Q00534); conditions: read-out: CDK6 (nM) inhibitory IC50
T3 construct: purchased Carna Company
Method: CDK1/CDK2/CDK4/CDK6/CDK7/CDK9 were purchased from Carna Company; Carliper substrate CTD3/substrate 18/substrate 8 were purchased from Gil Biochemical Company; Dinaciclib/Palbociclib were purchased from Selleckchem Company; DMSO was purchased from Sigma Company; 384-well plates were purchased from Corning Company.
• (1) Preparation of 1×Kinase buffer. • (2) Preparation of compound concentration gradient: Test concentration of the test compound was started at 1 μM, 10 μM or 30 μM, 3-fold dilution, 10 concentrations, detected in duplicate. […] Liquid handler Echo 550 was used to transfer 250 nL of 100-fold final concentration of the compound to the target plate 384-well plate. […] The 384-well plate was centrifuged at 1000 rpm for 30 seconds, and shaken to mix uniformly. • (10) The conversion rate was read with Caliper EZ Reader.
Where, conversion %_sample is the readings of conversion rate of the sample; conversion %_min: the average value of negative control wells, representing the readings of conversion rate of wells without enzyme activity; conversion %_max: the average value of positive control wells, representing the readings of conversion rate of wells without compound inhibition.
Taking the log value of the concentration as the X-axis, and the percentage inhibition rate as the Y-axis, the dose-effect curve was fitted using the log(inhibitor) vs. response—Variable slope of the analysis software GraphPad Prism 5 so as to obtain the IC50 value of each compound on the enzyme activity.
Y=Bottom+(Top−Bottom)/(1+10^((Log IC50−X)*HillSlope)). Calculation formula: […]

T3 sequence (Q00534 whole entry): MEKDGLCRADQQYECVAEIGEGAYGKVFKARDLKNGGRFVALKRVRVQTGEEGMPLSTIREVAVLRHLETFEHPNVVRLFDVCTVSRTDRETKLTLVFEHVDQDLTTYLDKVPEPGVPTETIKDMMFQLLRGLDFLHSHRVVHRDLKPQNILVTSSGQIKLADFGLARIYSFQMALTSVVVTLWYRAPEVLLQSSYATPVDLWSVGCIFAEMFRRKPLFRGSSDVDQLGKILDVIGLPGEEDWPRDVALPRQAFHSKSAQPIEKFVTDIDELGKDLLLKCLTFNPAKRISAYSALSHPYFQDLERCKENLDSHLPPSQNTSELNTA
T3 sequence (P30281 whole entry partner): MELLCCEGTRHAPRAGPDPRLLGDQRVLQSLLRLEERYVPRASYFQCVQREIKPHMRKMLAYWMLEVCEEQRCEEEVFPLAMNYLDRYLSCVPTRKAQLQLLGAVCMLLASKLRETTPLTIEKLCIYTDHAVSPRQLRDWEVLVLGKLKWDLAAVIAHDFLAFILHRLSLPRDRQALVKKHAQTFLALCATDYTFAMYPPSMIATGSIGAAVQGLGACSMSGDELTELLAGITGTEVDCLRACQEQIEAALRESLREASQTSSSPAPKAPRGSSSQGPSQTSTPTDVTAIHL
T2 sequence (P11802 whole entry): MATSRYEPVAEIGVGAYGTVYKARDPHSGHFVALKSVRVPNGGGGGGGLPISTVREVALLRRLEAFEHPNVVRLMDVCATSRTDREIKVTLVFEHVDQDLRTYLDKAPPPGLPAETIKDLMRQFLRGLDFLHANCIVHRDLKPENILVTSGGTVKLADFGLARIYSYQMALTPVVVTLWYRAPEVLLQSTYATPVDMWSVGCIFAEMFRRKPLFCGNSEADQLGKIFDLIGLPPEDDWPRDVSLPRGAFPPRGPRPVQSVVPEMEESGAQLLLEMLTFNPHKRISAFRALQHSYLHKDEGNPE
T2 sequence (P30281 whole entry partner): as the sequence (P30281 whole entry partner) above

Row | Compound | IC50 (CDK2) [nM] | IC50 (CDK4) [nM] | IC50 (CDK6) [nM]
1 | O=S(=O)(c1ccc(N2CC3CC(C2)N3)nc1)N1CCC(Nc2ncc(C(F)(F)F)c(O[C@H]3CCOC3)n2)CC1 [Compound 180] | < 0.5 | 0.5 to 2.5 | 0.5 to 2.5
2 | C[C@@H]1CN(c2ccc(S(=O)(=O)N3CCC(Nc4ncc(C(F)(F)F)c(O[C@H]5CCOC5)n4)CC3)cc2)CCN1 [Compound 185] | < 0.5 | 0.5 to 2.5 | 0.5 to 2.5
3 | O=S(=O)([C@@H]1CCCNC1)N1CCC(Nc2ncc(C(F)(F)F)c(NC3CCCC3)n2)CC1 [Compound 162] | 2.5 to 10 | 2.5 to 10 | 10 to 50
4 | O=S(=O)(c1ccc(C2=CCNCC2)cn1)N1CCC(Nc2ncc(C(F)(F)F)c(O[C@H]3CCOC3)n2)CC1 [Compound 176] | < 0.5 | 0.5 to 2.5 | 0.5 to 2.5
5 | Cc1cc(S(=O)(=O)N2CCC(Nc3ncc(C(F)(F)F)c(O[C@H]4CCOC4)n3)CC2)ccc1C1CCNCC1 [Compound 155] | < 0.5 | 0.5 to 2.5 | 0.5 to 2.5
6 | O=S(=O)([C@H]1CCCNC1)N1CCC(Nc2ncc(C(F)(F)F)c(NC3CCCC3)n2)CC1 [Compound 163] | 2.5 to 10 | 2.5 to 10 | 0.5 to 2.5
7 | C[C@H]1CNCCN1c1ccc(S(=O)(=O)N2CCC(Nc3ncc(C(F)(F)F)c(O[C@H]4CCOC4)n3)CC2)cc1 [Compound 198] | 0.5 to 2.5 | 0.5 to 2.5 | 0.5 to 2.5
8 | C[C@H]1CN(c2ccc(S(=O)(=O)N3CCC(Nc4ncc(C(F)(F)F)c(O[C@H]5CCOC5)n4)CC3)cn2)C[C@H](C)N1 [Compound 170] | < 0.5 | 0.5 to 2.5 | 0.5 to 2.5
9 | O=S(=O)(c1ccc(N2CC3CC(C2)N3)cc1)N1CCC(Nc2ncc(C(F)(F)F)c(O[C@H]3CCOC3)n2)CC1 [Compound 179] | < 0.5 | 0.5 to 2.5 | 0.5 to 2.5
10 | C[C@H]1CN(c2ccc(S(=O)(=O)N3CCC(Nc4ncc(C(F)(F)F)c(O[C@H]5CCOC5)n4)CC3)cc2)CCN1 [Compound 186] | < 0.5 | 0.5 to 2.5 | 0.5 to 2.5
11 | O=S(=O)(c1ccc(N2CCNCC2)cn1)N1CCC(Nc2ncc(C(F)(F)F)c(O[C@H]3CCOC3)n2)CC1 [Compound 178] | < 0.5 | 0.5 to 2.5 | 0.5 to 2.5
12 | O=S(=O)(c1ccc(C2CCCNC2)cc1)N1CCC(Nc2ncc(C(F)(F)F)c(O[C@H]3CCOC3)n2)CC1 (stereo partly drawn) [Example 113, N-(1-((4-(Piperidin-3-yl)phenyl)sulfonyl)piperidin-4-yl)-4-(((S)-tetrahydrofuran-3-yl)oxy)-5-(trifluoromethyl)pyrimidin-2-amine] | 0.5 to 2.5 | 0.5 to 2.5 | 0.5 to 2.5
13 | O=S(=O)(c1ccc(C2CCNC2)cc1)N1CCC(Nc2ncc(C(F)(F)F)c(O[C@H]3CCOC3)n2)CC1 (stereo partly drawn) [Compound 145] | < 0.5 | 0.5 to 2.5 | 0.5 to 2.5
14 | C[C@@H]1CN(c2ccc(S(=O)(=O)N3CCC(Nc4ncc(C(F)(F)F)c(O[C@H]5CCOC5)n4)CC3)cc2)C[C@H](C)N1 [Example 169] | < 0.5 | 0.5 to 2.5 | 0.5 to 2.5
15 | N#Cc1cnc(NC2CCN(S(=O)(=O)c3ccc(C4=CCNCC4)cc3)CC2)nc1NC1CCCC1(F)F (stereo not drawn) [Compound 135] | 0.5 to 2.5 | 0.5 to 2.5 | 0.5 to 2.5
16 | O=S(=O)(c1ccc(N2CC3CNCC3C2)cc1)N1CCC(Nc2ncc(C(F)(F)F)c(O[C@H]3CCOC3)n2)CC1 (stereo partly drawn) [Compound 191] | < 0.5 | 0.5 to 2.5 | 0.5 to 2.5
17 | O=S(=O)(c1ccc(C2CCNCC2)nc1)N1CCC(Nc2ncc(C(F)(F)F)c(O[C@H]3CCOC3)n2)CC1 [Compound 174] | < 0.5 | 0.5 to 2.5 | 0.5 to 2.5
18 | N#Cc1cnc(NC2CCN(S(=O)(=O)c3ccc(N4CCNCC4)cc3)CC2)nc1NC1CCCC1 [Compound 90] | 0.5 to 2.5 | 0.5 to 2.5 | 0.5 to 2.5

Row | Compound | IC50 (CDK2) [nM] | IC50 (CDK4) [nM] | IC50 (CDK6) [nM]
19 | O=S(=O)(c1ccc(C2CNC2)c(F)c1)N1CCC(Nc2ncc(C(F)(F)F)c(O[C@H]3CCOC3)n2)CC1 [Compound 160] | 0.5 to 2.5 | 2.5 to 10 | 0.5 to 2.5
20 | O=S(=O)(c1ccc(C2=CCNCC2)cc1)N1CCC(Nc2ncc(C(F)(F)F)c(N[C@H]3CCOC3)n2)CC1 [Compound 93] | 0.5 to 2.5 | 2.5 to 10 | 0.5 to 2.5
21 | N#Cc1cnc(NC2CCN(S(=O)(=O)c3ccc(C4=CCNCC4)cc3)CC2)nc1N[C@H]1CCOC1 [Compound 92] | 2.5 to 10 | 2.5 to 10 | 0.5 to 2.5
22 | O=S(=O)(c1ccc(C2=CCNCC2)nc1)N1CCC(Nc2ncc(C(F)(F)F)c(O[C@H]3CCOC3)n2)CC1 [Compound 173] | < 0.5 | 0.5 to 2.5 | 0.5 to 2.5
23 | O=S(=O)(c1ccc(C2CCNCC2)cc1)N1CCC(Nc2ncc(C(F)(F)F)c(O[C@H]3CCOC3)n2)CC1 [Compound 130] | < 0.5 | 0.5 to 2.5 | 0.5 to 2.5
24 | O=S(=O)(c1ccc(N2CCNCC2)c(F)c1)N1CCC(Nc2ncc(C(F)(F)F)c(O[C@H]3CCOC3)n2)CC1 [Compound 172] | 0.5 to 2.5 | 0.5 to 2.5 | 0.5 to 2.5
25 | N#Cc1cnc(NC2CCN(S(=O)(=O)c3ccc(N4CCNC(=O)C4)cc3)CC2)nc1NC1CCCC1 [Compound 103] | 0.5 to 2.5 | 2.5 to 10 | 0.5 to 2.5
26 | COc1cc(S(=O)(=O)N2CCC(Nc3ncc(C(F)(F)F)c(O[C@H]4CCOC4)n3)CC2)ccc1C1=CCNCC1 [Compound 194] | 0.5 to 2.5 | 0.5 to 2.5 | 0.5 to 2.5
27 | O=S(=O)(c1ccc(N2CCNC(C(F)(F)F)C2)nc1)N1CCC(Nc2ncc(C(F)(F)F)c(O[C@H]3CCOC3)n2)CC1 (stereo partly drawn) [Compound 167] | 0.5 to 2.5 | 0.5 to 2.5 | 0.5 to 2.5
28 | Cc1cc(S(=O)(=O)N2CCC(Nc3ncc(C(F)(F)F)c(O[C@H]4CCOC4)n3)CC2)ccc1C1=CCCNC1 [Compound 196] | < 0.5 | 0.5 to 2.5 | 0.5 to 2.5
29 | Cn1cc(-c2ccc(S(=O)(=O)N3CCC(Nc4ncc(C#N)c(N[C@H]5CCC[C@H]5O)n4)CC3)cc2)cn1 [Compound 51] | 0.5 to 2.5 | 2.5 to 10 | 0.5 to 2.5
30 | C[C@H]1CN(c2ccc(S(=O)(=O)N3CCC(Nc4ncc(C(F)(F)F)c(O[C@H]5CCOC5)n4)CC3)cn2)CCN1 [Compound 188] | < 0.5 | 0.5 to 2.5 | 0.5 to 2.5
31 | O=S(=O)(c1ccc(N2CC3CCC(C2)N3)nc1)N1CCC(Nc2ncc(C(F)(F)F)c(O[C@H]3CCOC3)n2)CC1 [Compound 182] | < 0.5 | 0.5 to 2.5 | 0.5 to 2.5
32 | Cc1cc(S(=O)(=O)N2CCC(Nc3ncc(C(F)(F)F)c(O[C@H]4CCOC4)n3)CC2)ccc1C1CCCNC1 (stereo partly drawn) [Compound 192] | < 0.5 | 0.5 to 2.5 | 0.5 to 2.5
33 | O=S(=O)(c1ccc(C2=CCNCC2)c(F)c1)N1CCC(Nc2ncc(C(F)(F)F)c(O[C@H]3CCOC3)n2)CC1 [Compound 121] | < 0.5 | 0.5 to 2.5 | 0.5 to 2.5
34 | N#Cc1cnc(NC2CCN(S(=O)(=O)c3ccc(N4CCC(O)CC4)cc3)CC2)nc1NC1CCCC1 [Compound 107] | < 0.5 | 0.5 to 2.5 | 0.5 to 2.5
35 | Cc1cc(S(=O)(=O)N2CCC(Nc3ncc(C(F)(F)F)c(O[C@H]4CCOC4)n3)CC2)cnc1N1CCNCC1 [Compound 175] | < 0.5 | 0.5 to 2.5 | 0.5 to 2.5
